In the NIST ThermoML archive (doi:10.1016/j.jct.2008.10.007):
± gives the expanded uncertainty stated by the source.

Key:
[1] = xn = mol fraction of the nth substance listed; settings: 298.15 K, 101 kPa, Liquid, Vibrating tube method
[2] = excess molar enthalpy (molar enthalpy of mixing); xn = mol fraction of the nth substance listed; settings: 298.15 K, 101 kPa, Liquid, Calvet calorimetry

ClCCCCCCCl [1,6-dichlorohexane] + CCCOC(C)=O
Settings | excess molar enthalpy [kcal/mol] | mass density [kg/m3]
[1], x2 = 0.0708 | – | 1053.44 ± 5.3
[1], x2 = 0.1405 | – | 1042.95 ± 4.6
[1], x2 = 0.208 | – | 1032.5 ± 4
[1], x2 = 0.2725 | – | 1022.22 ± 3.4
[1], x2 = 0.3392 | – | 1011.28 ± 2.9
[1], x2 = 0.4656 | – | 989.61 ± 2
[1], x2 = 0.584 | – | 968.14 ± 1.4
[1], x2 = 0.6947 | – | 946.95 ± 0.95
[1], x2 = 0.8017 | – | 925.34 ± 0.61
[1], x2 = 0.8514 | – | 914.87 ± 0.49
[1], x2 = 0.902 | – | 903.96 ± 0.39
[1], x2 = 0.9502 | – | 893.34 ± 0.3
[2], x2 = 0.0861 | 0.00598 ± 0.000239 | –
[2], x2 = 0.1716 | 0.00478 ± 0.000239 | –
[2], x2 = 0.2676 | -0.00311 ± 0.000239 | –
[2], x2 = 0.3149 | -0.00765 ± 0.000239 | –
[2], x2 = 0.3896 | -0.0146 ± 0.000478 | –
[2], x2 = 0.4563 | -0.0196 ± 0.000478 | –
[2], x2 = 0.5169 | -0.0239 ± 0.000717 | –
[2], x2 = 0.5684 | -0.0253 ± 0.000717 | –
[2], x2 = 0.5761 | -0.0246 ± 0.000717 | –
[2], x2 = 0.6268 | -0.0241 ± 0.000717 | –
[2], x2 = 0.6841 | -0.022 ± 0.000478 | –
[2], x2 = 0.7455 | -0.0194 ± 0.000478 | –
[2], x2 = 0.8101 | -0.0153 ± 0.000478 | –
[2], x2 = 0.8793 | -0.0105 ± 0.000239 | –
[2], x2 = 0.9463 | -0.00574 ± 0.000239 | –

CCCOC(=O)CCC [propyl butanoate] + ClCCCCCCCl
Settings | excess molar enthalpy [kcal/mol] | mass density [kg/m3]
[1], x1 = 0.1123 | – | 1041.34 ± 4.8
[1], x1 = 0.1686 | – | 1030.2 ± 4.2
[1], x1 = 0.2265 | – | 1018.77 ± 3.7
[1], x1 = 0.2841 | – | 1007.46 ± 3.2
[1], x1 = 0.3424 | – | 995.99 ± 2.8
[1], x1 = 0.4025 | – | 984.2 ± 2.4
[1], x1 = 0.4598 | – | 973.01 ± 2
[1], x1 = 0.5766 | – | 950.16 ± 1.4
[1], x1 = 0.6959 | – | 926.91 ± 0.91
[1], x1 = 0.755 | – | 915.37 ± 0.73
[1], x1 = 0.8145 | – | 903.79 ± 0.57
[1], x1 = 0.8778 | – | 891.49 ± 0.43
[1], x1 = 0.9367 | – | 880.14 ± 0.32
[1], x1 = 1 | – | 867.9 ± 0.23
[2], x1 = 0.0619 | -0.00526 ± 0.000239 | –
[2], x1 = 0.1445 | -0.011 ± 0.000478 | –
[2], x1 = 0.2343 | -0.0182 ± 0.000478 | –
[2], x1 = 0.3207 | -0.0258 ± 0.000717 | –
[2], x1 = 0.3911 | -0.0327 ± 0.000717 | –
[2], x1 = 0.4594 | -0.0378 ± 0.000956 | –
[2], x1 = 0.5174 | -0.0404 ± 0.000956 | –
[2], x1 = 0.5559 | -0.0411 ± 0.000956 | –
[2], x1 = 0.6181 | -0.0402 ± 0.000956 | –
[2], x1 = 0.6903 | -0.037 ± 0.000956 | –
[2], x1 = 0.7651 | -0.0315 ± 0.000717 | –
[2], x1 = 0.849 | -0.0229 ± 0.000478 | –
[2], x1 = 0.9334 | -0.012 ± 0.000478 | –

CCCOC(=O)CCC [propyl butanoate] + ClCCCCCCl
Settings | excess molar enthalpy [kcal/mol] | mass density [kg/m3]
[1], x1 = 0.0527 | – | 1081.35 ± 5.8
[1], x1 = 0.1057 | – | 1067.82 ± 5.1
[1], x1 = 0.1578 | – | 1054.69 ± 4.5
[1], x1 = 0.2095 | – | 1041.82 ± 4
[1], x1 = 0.2663 | – | 1027.99 ± 3.5
[1], x1 = 0.3782 | – | 1001.4 ± 2.6
[1], x1 = 0.4944 | – | 974.66 ± 1.8
[1], x1 = 0.6144 | – | 947.96 ± 1.2
[1], x1 = 0.7409 | – | 920.76 ± 0.77
[1], x1 = 0.804 | – | 907.58 ± 0.59
[1], x1 = 0.8678 | – | 894.43 ± 0.45
[1], x1 = 0.9363 | – | 880.61 ± 0.32
[1], x1 = 1 | – | 867.9 ± 0.23
[2], x1 = 0.0559 | -0.00311 ± 0.000239 | –
[2], x1 = 0.1285 | -0.0086 ± 0.000239 | –
[2], x1 = 0.2091 | -0.0167 ± 0.000478 | –
[2], x1 = 0.2908 | -0.0258 ± 0.000717 | –
[2], x1 = 0.3699 | -0.0351 ± 0.000717 | –
[2], x1 = 0.4417 | -0.0449 ± 0.000956 | –
[2], x1 = 0.4998 | -0.0504 ± 0.0012 | –
[2], x1 = 0.553 | -0.0526 ± 0.0012 | –
[2], x1 = 0.5757 | -0.0523 ± 0.0012 | –
[2], x1 = 0.6397 | -0.0497 ± 0.0012 | –
[2], x1 = 0.71 | -0.0445 ± 0.000956 | –
[2], x1 = 0.7828 | -0.0368 ± 0.000956 | –
[2], x1 = 0.8561 | -0.0265 ± 0.000717 | –
[2], x1 = 0.9304 | -0.0146 ± 0.000478 | –

CCCOC(C)=O [propyl ethanoate] + ClCCCCCCCl
Settings | mass density [kg/m3]
[1], x1 = 1 | 882.08 ± 0.23

CCCOC(C)=O [propyl ethanoate] + ClCCCCCCl
Settings | mass density [kg/m3]
[1], x1 = 1 | 882.08 ± 0.23

CCCOC(C)=O [propyl ethanoate] + ClCCCCCl
Settings | mass density [kg/m3]
[1], x1 = 1 | 882.08 ± 0.23

CCCOC(C)=O [propyl ethanoate] + ClCCCCl
Settings | mass density [kg/m3]
[1], x1 = 1 | 882.08 ± 0.23

CCCOC(C)=O [propyl ethanoate] + ClCCCl
Settings | mass density [kg/m3]
[1], x1 = 1 | 882.08 ± 0.23

CCCOC=O [propyl methanoate] + ClCCCCCCl
Settings | mass density [kg/m3]
[1], x1 = 1 | 899.81 ± 1.6

CCCOC(=O)CC [propyl propanoate] + ClCCCCCCCl
Settings | mass density [kg/m3]
[1], x1 = 1 | 875.61 ± 0.23

CCCOC(=O)CC [propyl propanoate] + ClCCCCCCl
Settings | mass density [kg/m3]
[1], x1 = 1 | 875.61 ± 0.23

CCCOC(=O)CC [propyl propanoate] + ClCCCCCl
Settings | mass density [kg/m3]
[1], x1 = 1 | 875.61 ± 0.23

CCCOC(=O)CC [propyl propanoate] + ClCCCCl
Settings | mass density [kg/m3]
[1], x1 = 1 | 875.61 ± 0.23
